This note sets out measurements from BindingDB's records for doi:10.7270/Q2XP773S (n/a, 1996).

The assay has as its target Histamine H2 receptor (Cavia porcellus, UniProt P47747). The assay can be described thus: ChEBML_85064. The source says: Histamine H2 receptor antagonistic activity

Sequence of Histamine H2 receptor (P47747 whole entry): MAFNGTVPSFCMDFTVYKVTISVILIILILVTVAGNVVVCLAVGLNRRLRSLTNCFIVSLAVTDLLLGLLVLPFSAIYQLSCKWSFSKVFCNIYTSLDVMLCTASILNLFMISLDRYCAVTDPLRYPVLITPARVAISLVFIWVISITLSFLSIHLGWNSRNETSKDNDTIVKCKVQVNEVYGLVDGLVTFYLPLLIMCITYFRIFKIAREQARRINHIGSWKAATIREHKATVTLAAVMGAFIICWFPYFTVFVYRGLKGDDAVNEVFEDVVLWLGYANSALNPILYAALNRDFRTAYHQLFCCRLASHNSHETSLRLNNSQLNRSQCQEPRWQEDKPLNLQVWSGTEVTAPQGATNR

For orientation: IC50 means the concentration that gives 50% inhibition. Lower therefore signals greater potency. The molecule `C/N=c1\c(O)c(O)c1=NC/C=C\COc1csc(CN2CCCCC2)c1` registered an IC50 of 1830 nM. This lies in the single-digit micromolar range.

With `CN(C)Cc1cc(OC/C=C\CN=c2c(O)c(O)c2=N)cs1`, the IC50 came out at 684 nM. Molecule `COCC/N=c1\c(O)c(O)c1=NC/C=C\COc1csc(CN2CCCCC2)c1` displayed a half-inhibitory concentration (IC50) of 1140 nM. In turn, `CC(C)/N=c1\c(O)c(O)c1=NC/C=C\COc1csc(CN2CCCCC2)c1` gave an IC50 of 1930 nM.

As for `CN(C)CC/N=c1\c(O)c(O)c1=NC/C=C\COc1csc(CN2CCCCC2)c1`, the 50% inhibitory concentration (IC50) turned out to be 809 nM. This IC50 lies about 2.4-fold lower than the previous one.
